Legend:
System xc− [1] = target: T1, System xc− (Homo sapiens, UniProt Q9UPY5); assay: 14C-cystine uptake in human glial cells from brain astrocytoma (1321N1); format: cell-based; conditions: 1321N1 cells
T1 construct: in vitro culture system of human glial cells from brain astrocytoma (1321N1); endogenous in cells; host or cells: 1321N1 human astrocytoma cells
T1 sequence (Q9UPY5 1-501): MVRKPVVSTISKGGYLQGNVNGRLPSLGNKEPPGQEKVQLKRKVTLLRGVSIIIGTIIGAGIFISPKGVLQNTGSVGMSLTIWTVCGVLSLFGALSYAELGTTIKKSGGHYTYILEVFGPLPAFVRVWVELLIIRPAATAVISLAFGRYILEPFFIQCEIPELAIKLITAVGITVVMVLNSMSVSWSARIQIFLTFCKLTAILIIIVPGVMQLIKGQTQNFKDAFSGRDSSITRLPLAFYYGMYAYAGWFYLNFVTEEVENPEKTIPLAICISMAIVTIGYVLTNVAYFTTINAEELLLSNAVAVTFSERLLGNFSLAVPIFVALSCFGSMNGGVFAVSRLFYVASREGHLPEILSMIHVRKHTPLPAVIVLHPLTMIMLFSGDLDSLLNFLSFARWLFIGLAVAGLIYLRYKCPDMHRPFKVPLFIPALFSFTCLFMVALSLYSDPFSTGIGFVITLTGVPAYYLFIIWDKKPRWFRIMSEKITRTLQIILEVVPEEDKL
T1 sequence (P08195 1-529 partner): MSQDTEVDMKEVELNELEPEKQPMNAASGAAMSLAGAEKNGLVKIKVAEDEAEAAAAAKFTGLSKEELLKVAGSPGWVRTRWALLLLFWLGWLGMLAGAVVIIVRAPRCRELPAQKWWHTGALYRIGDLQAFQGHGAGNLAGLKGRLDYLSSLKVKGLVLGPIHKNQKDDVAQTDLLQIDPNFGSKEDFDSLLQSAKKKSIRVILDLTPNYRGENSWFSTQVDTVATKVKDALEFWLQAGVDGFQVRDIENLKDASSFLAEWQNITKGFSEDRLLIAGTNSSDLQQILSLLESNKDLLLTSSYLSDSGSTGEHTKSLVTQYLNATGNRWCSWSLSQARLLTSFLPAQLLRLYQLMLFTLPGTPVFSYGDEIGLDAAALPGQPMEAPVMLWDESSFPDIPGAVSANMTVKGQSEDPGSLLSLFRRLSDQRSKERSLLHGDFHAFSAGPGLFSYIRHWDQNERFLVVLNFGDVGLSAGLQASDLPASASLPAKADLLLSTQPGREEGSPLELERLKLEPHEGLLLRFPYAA
Description: The goal of these experiments was to determine ^14C-cystine uptake.
The screening of compounds was performed using an in vitro culture system of human glial cells from brain astrocytoma (1321N1). Cells were plated on 24 well plates coated with poly-D-lysine and laminin and grown in a balanced salt solution supplemented with 5% heat inactivated horse serum, 5% fetal bovine serum, 2 mM glutamine and glucose (total 21 mM). Cultures were maintained in humidified 5% CO2 incubators at 37° C. for 3-4 days before experiments were performed, at this time the cultures has formed a single confluent layer. For experiments, cultures were washed 3 times into a Na-free HEPES and HCO3^− buffered balanced salt solution. After 1 hour, the test compounds are added. Following a three hour incubation, ^14C-cystine (0.025 mCi/mL) was then added for 20 minutes. Following the ^14C-cystine exposure, cultures were washed 3 times with ice cold HEPES buffered saline solution and dissolved in 250 μl sodium dodecyl sulfate (0.1%). An aliquot (200 μl) was removed and added to scintillation fluid for counting. Values were normalized to ^14C-cystine uptake in untreated controls on the same experimental plate.

System xc− [2] = target: T1, System xc−; assay: 3H-glutamate release from human glial cells from brain astrocytoma (1321N1); format: cell-based; conditions: 1321N1 cells
Description: This assay also uses the cell culture system of human glial cells from brain astrocytoma (1321N1) described above. Initially, cells are washed with HBBSS, and ^3H-glutamate is added (PerkinElmer: 1 mCi/mL stock solution is diluted (30 μL+500 HBBSS) and 10 μL of diluted radiolabel is added to each well). Following a 1 hour incubation to load the cells with the labeled glutamate, the cells are washed again with HBBSS, and the drug is added. At 30, 90, and 180 minutes, 50 μL of extracellular media is sampled from each well and is measured using a Beckman LS 6500 scintillation counter.

[3] = system: mixed cortical cell cultures containing glial and neuronal cells; assay: In vitro thiol experiment: intracellular cysteine levels; format: cell-based, mice; conditions: 30 minutes; for intracellular cysteine concentration: raw concentration in collected samples
Description: To further resolve by what process the inhibition of ^14C-cystine uptake is occurring intracellular cysteine levels were determined.
Mixed cortical cell cultures containing glial and neuronal cells were prepared from fetal (15-16 day gestation) mice as previously described. (Lobner D, “Comparison of the LDH and MTT assays for quantifying cell death: validity for neuronal apoptosis?,” J. Neurosci. Methods, 96(2): 147-152 (Mar. 15, 2000)). Dissociated cortical cells were plated on 24-well plates coated with poly-D-lysine and laminin in Eagles' Minimal Essential Medium (MEM, Earle's salts, supplied glutamine-free) supplemented with 5% heat-inactivated horse serum, 5% fetal bovine serum, 2 mM glutamine and glucose (total 21 mM). Cultures were maintained in humidified 5% CO2 incubators at 37° C. Mice were handled in accordance with a protocol approved by our institutional animal care committee and in compliance with the Public Health service Policy on Humane Care and Use of Laboratory Animals.
Mixed cortical cell cultures, 14 days in vitro (this allows for a confluent layer of astrocytes to form and the neurons to generate a complex network of axons and dendrites), were washed into bicarbonate buffered salt solution. After 1 hour, 3, 10, 30, 100 μM of Pro-4047 or Pro-4051 was added and the cells were incubated for 30 or 90 minutes, after which the cells were thoroughly washed and the collected in 250 μL of aqueous mobile phase (50 mM citric acid, 10 mM octanesulfonic acid, pH 2.8) was added, after 10 minutes at 37° C. the cells were scraped from the plates and transferred to 1.5 mL tubes for analysis.
Samples were then sonicated with a Fisher Scientific 60 Sonic Dismembrator. One fraction of this homogenate was analyzed with the Pierce BCA (bicinchoninic acid) method to determine protein concentration. The other fraction was filtered using 3 K molecular weight cutoff, polyethersulfone centrifugal protein filters, and analyzed for thiol content using HPLC (ALF-115 column, 150×1.0 mm, 3 μm C18 [Pro-2023 analysis utilized a Phenomenex Kinetex 2.6 μM, C18, 100 A, 150×2.1 mm and Pro-4047 analysis utilized a Phenomenex Kinetex X-B, C18, 100 A, 2.6 μm, 150×4.4 mm]; mobile phase: 50 mM citric acid, 10 mM octanesulfonic acid, 2% acetonitrile, pH 2.8, 50 μL/min flow rate [Pro-2023 analysis utilized a 100 μL/min flow rate and Pro-4047 analysis utilized 1% acetonitrile and 0.4 mL/min flow rate] with electrochemical detection (Decade II, Au working electrode, Flex Cell HyREF, 0.55V, Antec Leyden, Netherlands [Pro-4047 analysis utilized a Magic Diamond working electrode and 1.8V]).
When the intracellular thiol assay was initiated, all data was normalized to protein concentration. […] The data presented herein represents the raw cysteine concentrations in the collected samples. […] Pro-4006 at 10 μM increases intracellular cysteine concentration to 0.07 μM at 30 minutes (approximately 3.5 times that of the control; FIG. 11). […] Pro-4047 at 300 μM increases intracellular cysteine concentration to 0.74 μM at 90 minutes (approximately 4.9 times that of the control; FIG. 13). […] Thus, based on the 3 in vitro experiments it is apparent that Pro-2023, Pro-4006, Pro-4011, Pro-4047, Pro-4051 and Pro-4051a behave as effective cysteine prodrugs.

Rats = assay: Elevated-plus maze; format: in vivo; conditions: 10 mg/kg PO
Description: Rats were tested in a standard elevated plus maze; testing occurred in a dimly illuminated room using only two lights mounted over the maze. Animals were allowed to habituate to the room for at least one hour prior to treatment. One hour prior to testing, rats received a compound of the present invention (0-30 mg/kg, P.O.). For testing, the rat was placed in the elevated plus maze for five minutes, alternating the starting position between facing an open arm and facing a closed arm. The session was recorded and an observer blind to treatment recorded the number of explorations, entries and time spent in the open arm. Explorations were defined as the rat placing two feet into an open arm without fully entering said arm. Entries were defined as the rat placing all four feet in an open arm. Time of entry in the open arm was recorded from the time the rat placed four feet in the open arm until two of the rats' feet entered the open square.

decrease in 14C-cystine uptake (System xc− [1]; 30 μM (most effective concentration), three hour incubation)	increase in 3H-glutamate release (System xc− [2]; 30 μM, at 30 minutes) [%]	increase in 14C-cystine uptake (System xc− [1]; 100 μM (most effective concentration), three hour incubation)	increase in 3H-glutamate release (System xc− [2]; 100 μM, at 3 hours) [%]	inhibition of 14C-cystine uptake (in words) (System xc− [1]; 3 hour incubation)	increase in 3H-glutamate release (System xc− [2]; 1000 μM, at 30 minutes)	Structure (SMILES)	intracellular cysteine, times that of the control ([3]; 10 μM compound)	intracellular cysteine concentration ([3]; 10 μM compound) [µM]	increase of time on the open arms over control (Rats)	time spent on the open arms (Rats; one hour prior to testing, five minute session)	intracellular cysteine, times that of the control ([3]; 100 μM compound)	intracellular cysteine concentration ([3]; 100 μM compound) [µM]
approximately 45%	35					CC(=O)N[C@@H](CSC(C)(C)c1ccccc1)C(N)=O [Pro-4006, (2R)-2-Acetamido-3-[(2-phenylpropan-2-yl)sulfanyl]propanamide]	approximately 3.5 times	0.07				
		approximately 75%	75			O=C(SC[C@H]1C(=O)NCC(=O)N1Cc1ccccc1)c1ccccc1 [Pro-4011, (6R)-6-[(benzoylsulfanyl)methyl]-1-benzylpiperazine-2,5-dione]	approximately 1.16 times	0.138				
				did not produce a substantial inhibition	approximately 180%	CC(=O)N[C@@H](CSC(=O)c1ccc(C)cc1)C(N)=O [Pro-4051a, (2R)-2-acetamido-3-(4-methylbenzoylsulfanyl)propanamide]			not a significant increase over control	around 22 seconds	approximately 3 times	0.21
